This note sets out measurements from patent publication US7915272B2 (priority 2006, dated 2011).

The assay addresses α7-subtype of nicotinic receptors (Rattus norvegicus, UniProt Q05941). In words: biochemical. Format: binding.

The structures appear in SMILES notation. Where a name gives a salt, the structure may show the parent alone.

α7-subtype of nicotinic receptors, sequence (Q05941 23-502): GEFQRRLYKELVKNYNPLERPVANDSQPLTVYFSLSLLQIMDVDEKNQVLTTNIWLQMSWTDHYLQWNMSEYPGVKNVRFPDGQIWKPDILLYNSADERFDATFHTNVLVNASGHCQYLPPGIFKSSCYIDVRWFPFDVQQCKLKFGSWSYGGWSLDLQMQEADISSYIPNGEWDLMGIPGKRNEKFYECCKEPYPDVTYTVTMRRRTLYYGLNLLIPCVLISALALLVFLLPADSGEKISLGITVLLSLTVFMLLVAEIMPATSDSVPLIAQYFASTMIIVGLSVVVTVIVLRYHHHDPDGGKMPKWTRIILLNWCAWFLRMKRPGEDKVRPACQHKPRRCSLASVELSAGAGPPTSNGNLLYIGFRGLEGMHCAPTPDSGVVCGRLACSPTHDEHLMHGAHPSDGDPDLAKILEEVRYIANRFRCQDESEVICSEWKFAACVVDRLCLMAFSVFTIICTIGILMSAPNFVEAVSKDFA

Broadly, the IC50 is the concentration needed to halve the response being measured. A low value points to greater potency. Compound `O=C(Nc1cnc(N2CCN3CCC2CC3)nc1)c1ccccc1F` [Compound 1, N-[2-(1,4-Diaza-bicyclo[3.2.2]non-4-yl)-pyrimidin-5-yl]-2-fluoro-benzamide hydrochloric acid salt] gave a half-maximal inhibitory concentration (IC50) below 100 nM.
